Data reported in article PMC11665553, “12-Lipoxygenase inhibition delays onset of autoimmune diabetes in human gene replacement mice” (JCI Insight, 2024).
Where “and” joins values, the source holds several entries; their conditions need not be identical. Identical values can stand only once.

Experiments:
NOD.hALOX12 mice [1] = test: Insulitis scoring and pancreas immunostaining (CD3, B220, F4/80, MAC2) in NOD.hALOX12 mice; format: in vivo, mouse
NOD.hALOX12 mice [2] = test: Flow cytometry of pancreatic lymph nodes and spleen of NOD.hALOX12 mice; format: in vivo, mouse; parameters: FoxP3 / CD4 / IFNg / IL-17a: unit not given here; conditions: for CD4 / FoxP3 / IFNg / IL-17a: flow cytometry, individual animals, listed as VLX
Protocol: Spleen and pLNs were harvested, homogenized, and passed through a 70 μm strainer to obtain a single-cell suspension. Cell pellets were resuspended in red blood cell (RBC) lysing solution to remove red blood cells. […] The following surface markers were used — CD4-FITC (BioLegend, 100510; 1:100), CD8–PerCP-Cy5.5 (BioLegend, 100734; 1:100), and CD19-AF700 (BioLegend, 152414; 1:100). Following incubation of surface antibodies, cells were washed with stain buffer and then permeabilized using fix/perm buffer (BD Biosciences, 554722) before intracellular staining. The following intracellular antibodies from BD Biosciences were used: FoxP3-AF647 (560401; 1:100), IFN-γ–PE (554412; 1:50), and IL-17a–APCCY7 (560821; 1:50). Cells were analyzed on the Attune NxT Flow Cytometer (Thermo Fisher Scientific). Data were analyzed by FlowJo software (BD Biosciences).

B6.hALOX12 mice = test: Multiple low-dose STZ-induced diabetes in B6.hALOX12 mice (random-fed blood glucose, GTT, β cell mass); conditions: for Blood glucose (Fig 1H) / GTT blood glucose (Fig 1I): individual animals; for Random-fed blood glucose (Fig 1E) / GTT blood glucose (Fig 1F): hAlox12 mice, listed as ML355, 30 mg/kg; for Random-fed blood glucose (Fig 1E): 30 mg/kg i.p. + STZ
Protocol: Intraperitoneal GTTs (IPGTTs) were performed in mice after overnight fasting (16 hours). Mice were i.p. injected with glucose at a dose of 1 or 2 g/kg body weight and blood glucose levels were measured at specific time points: 0, 10, 20, 30, 60, 90, and 120 minutes after glucose injection using an AlphaTrak glucometer.
Random-fed glucose levels were measured by tail snip using a glucometer (AlphaTrak), and mice were followed for 20 days after STZ injections. IPGTT was performed on day 4 after STZ treatments after overnight fasting.

[3] = system: BMDMs from NOD.hALOX12 mice; test: RNA sequencing of M0 and M1-like polarized BMDMs; format: cell-based, mouse
Description: BMDMs were unpolarized (M0) or polarized to an M1-like state (with lipopolysaccharide and IFN-γ) to mimic the inflammatory state that might be observed during T1D pathogenesis.
These common genes mapped to pathways related to cytokine-mediated signaling, T cell activation, and antigen processing and presentation (Supplemental Figure 3B). […] The 507 genes altered with vehicle treatment mapped to GO pathways related to the M1 polarization phenotype (myeloid cell differentiation, immune response, response to cytokines) and pathways related to oxidative stress (cell redox homeostasis, response to hydrogen peroxides) (Figure 5E). These pathways were not identified in the genes that were differentially expressed during VLX-1005 treatment.
BMDMs were isolated from 8-week-old NOD.hALOX12 mice as described previously ([2]). The isolated BMDMs were cultured for 7 days in complete medium (RPMI 1640 containing 10% FBS, 10 mM HEPES, and 100 U/mL penicillin/streptomycin) supplemented with 10 ng/mL M-CSF. […] After 1-hour pretreatment, the BMDMs were further stimulated with 10 ng/mL LPS and 25 ng/mL IFN-γ for 18 hours for M1-like polarization. RNA was isolated and used for sequencing.
RNA extraction was performed using RLT Buffer, according to the manufacturer’s instructions (Qiagen). Samples were submitted for library generation and sequencing by the University of Chicago sequencing core using a NovaSeq 6000 (Illumina). Data were analyzed using Galaxy (https://usegalaxy.org/). Reads were aligned to the Mus musculus genome build mm10 using HISAT2 (https://daehwankimlab.github.io/hisat2/). Individual sample reads were quantified using HTseq-count and normalized using DESeq2 (https://bioconductor.org/packages/release/bioc/html/DESeq2.html). DEseq2 was also used to calculate FCs and P values and to perform optional covariate correction. GO was used for pathway analysis.

[4] = Pharmacokinetics after single p.o. dose in C57BL/6J mice (plasma LC-MS/MS)
[5] = female NOD.hALOX12 mice, 30 mg/kg p.o., 4 weeks
[6] = sheet Fig 2G, pancreas immunostaining, individual animals, listed as VLX
[7] = B6.hALOX12 mice, 30 mg/kg p.o., STZ
[8] = sheet Fig 5G, 4 replicates, listed as VLX
[9] = C57BL/6J, mouse, plasma, po, 30 mg/kg

COc1cccc(CNc2ccc(S(=O)(=O)Nc3nc4ccccc4s3)cc2)c1O [VLX-1005]
T and B cell infiltration (pancreas pathology) (NOD.hALOX12 mice [1]; [5]): reduced T and B cell infiltration
T cells (CD3+), macrophages (F4/80+), activated macrophages (Mac2+) by immunohistochemistry (NOD.hALOX12 mice [1]; [5]): reductions
Extent of insulitis (insulitis scoring) vs vehicle (NOD.hALOX12 mice [1]; female NOD.hALOX12 mice, 30 mg/kg p.o., 4 weeks (6–10 weeks of age)): significantly reduced
Insulitis score (Fig 2E) (NOD.hALOX12 mice [1]; individual animals, listed as VLX): 1.633 and 1.787 and 1.784 and 1.529 and 1.472
CD3 (NOD.hALOX12 mice [1]; [6]): 1.368e-5 and 2.024e-5 and 0.0002739 and 0 and 2.686e-5
F4/80 (NOD.hALOX12 mice [1]; [6]): 0.00043 and 0.0003528 and 0.0003661 and 0.0004659 and 0.0002593
F4/80 (second Veh/VLX pair) (NOD.hALOX12 mice [1]; [6]): 0.000451 and 0.000344 and 0.000488 and 0.0002845
CD4+Foxp3+ regulatory T cells in pancreatic lymph nodes (NOD.hALOX12 mice [2]; [5]): increase
Tregs in spleen (NOD.hALOX12 mice [2]; [5]): no changes
CD4 (NOD.hALOX12 mice [2]; sheet SFig 2C): 65.7 and 58.8 and 61.4 and 58 and 54.2
FoxP3 (NOD.hALOX12 mice [2]; sheet SFig 2C): 4.31 and 7.46 and 5.24 and 7.28 and 5.6
IFNg (NOD.hALOX12 mice [2]; sheet SFig 2C): 0.037 and 0.092 and 0.047 and 0.058 and 0.044
IL-17a (NOD.hALOX12 mice [2]; sheet SFig 2C): 2.96 and 5.74 and 6.17 and 6.96 and 7.02
CD4 (NOD.hALOX12 mice [2]; sheet SFig 2D): 46.2 and 45.1 and 46.1 and 45.5 and 43.7
FoxP3 (NOD.hALOX12 mice [2]; sheet SFig 2D): 8.7 and 7.15 and 4.07 and 12.1 and 9.49
IFNg (NOD.hALOX12 mice [2]; sheet SFig 2D): 0.36 and 0.33 and 0.39 and 0.29 and 0.4
IL-17a (NOD.hALOX12 mice [2]; sheet SFig 2D): 3.2
Glucose tolerance vs vehicle (B6.hALOX12 mice; [7]): significantly improved glucose tolerance
Random-fed blood glucose levels vs vehicle (B6.hALOX12 mice; [7]): lower random-fed blood glucose levels
β cell mass at end of study vs vehicle (B6.hALOX12 mice; [7]): greater β cell mass
GTT AUC (Fig 1J) (B6.hALOX12 mice; B6.hALOX12 mice, 30 mg/kg p.o., day 4 after STZ, individual mice, 30 mg/kg): 38575 and 27605 and 37915 and 32740 and 28655 and 39615
β cell mass (Fig 1K) (B6.hALOX12 mice; B6.hALOX12 mice, 30 mg/kg p.o., day 26 after STZ, individual mice, listed as VLX, 30 mg/kg): 0.4287 and 0.8456 and 0.5623 and 0.6492 and 1.024
Glucose tolerance (GTT) (B6.hALOX12 mice; B6.hALOX12 vs WT C57BL/6J mice, both 30 mg/kg i.p., after STZ): improved glucose tolerance
Blood glucose (Fig 1H) (B6.hALOX12 mice; day 1): 293 and 265 and 377 and 281 and 389 and 367
Blood glucose (Fig 1H) (B6.hALOX12 mice; day 4): 209 and 312 and 289 and 205 and 311 and 272
Blood glucose (Fig 1H) (B6.hALOX12 mice; day 8): 346 and 273 and 297 and 307 and 219 and 303
Blood glucose (Fig 1H) (B6.hALOX12 mice; day 11): 435 and 460 and 385 and 378 and 441 and 298
Blood glucose (Fig 1H) (B6.hALOX12 mice; day 16): 427 and 543 and 470 and 301 and 405 and 380
Blood glucose (Fig 1H) (B6.hALOX12 mice; day 18): 571 and 573 and 426 and 374 and 417 and 346
Blood glucose (Fig 1H) (B6.hALOX12 mice; day 23): 474 and 543 and 550 and 331 and 533 and 356
Blood glucose (Fig 1H) (B6.hALOX12 mice; day 25): 630 and 501 and 416 and 359 and 457 and 307
Blood glucose (Fig 1H) (B6.hALOX12 mice; day 28): 426 and 551 and 530 and 363 and 483 and 470
Blood glucose (Fig 1H) (B6.hALOX12 mice; day -3): 296 and 262 and 381 and 299 and 367 and 314
GTT AUC (Fig 1G) (B6.hALOX12 mice; hALOX12 mice, 30 mg/kg i.p., day 4 after STZ, individual mice, 30 mg/kg): 24945 and 29635 and 27915 and 36735
Random-fed blood glucose (Fig 1E) (B6.hALOX12 mice; day 0, individual mice): 184 and 194 and 153 and 159
Random-fed blood glucose (Fig 1E) (B6.hALOX12 mice; day 5, individual mice): 174 and 179 and 181 and 131
Random-fed blood glucose (Fig 1E) (B6.hALOX12 mice; day 10, individual mice): 195 and 201 and 210 and 180
Random-fed blood glucose (Fig 1E) (B6.hALOX12 mice; day 15, individual mice): 167 (2×) and 210 and 214
Random-fed blood glucose (Fig 1E) (B6.hALOX12 mice; day 22, individual mice): 193 and 223 and 208 and 188
Random-fed blood glucose (Fig 1E) (B6.hALOX12 mice; day 27, individual mice): 216 and 217 and 226 and 193
Random-fed blood glucose (Fig 1E) (B6.hALOX12 mice; day -5, individual mice): 194 and 201 and 167 and 185
GTT blood glucose (Fig 1F) (B6.hALOX12 mice; 30 mg/kg i.p., day 4 after STZ, 0 min after glucose, individual mice): 184 and 132 and 122 and 134
GTT blood glucose (Fig 1F) (B6.hALOX12 mice; 30 mg/kg i.p., day 4 after STZ, 10 min after glucose, individual mice): 401 and 364 and 354 and 369
GTT blood glucose (Fig 1F) (B6.hALOX12 mice; 30 mg/kg i.p., day 4 after STZ, 20 min after glucose, individual mice): 610 and 557 and 487 and 467
GTT blood glucose (Fig 1F) (B6.hALOX12 mice; 30 mg/kg i.p., day 4 after STZ, 30 min after glucose, individual mice): 512 and 597 and 398 and 458
GTT blood glucose (Fig 1F) (B6.hALOX12 mice; 30 mg/kg i.p., day 4 after STZ, 60 min after glucose, individual mice): 361 and 446 and 310 and 375
GTT blood glucose (Fig 1F) (B6.hALOX12 mice; 30 mg/kg i.p., day 4 after STZ, 90 min after glucose, individual mice): 221 and 387 and 284 and 306
GTT blood glucose (Fig 1F) (B6.hALOX12 mice; 30 mg/kg i.p., day 4 after STZ, 120 min after glucose, individual mice): 159 and 209 and 223 and 281
Protection from STZ-induced diabetes (B6.hALOX12 mice; male B6.hALOX12 mice, 30 mg/kg i.p. daily peri-STZ): complete protection from STZ-induced diabetes
GTT blood glucose (Fig 1I) (B6.hALOX12 mice; time 0): 403 and 326 and 234 and 245 and 279 and 370
GTT blood glucose (Fig 1I) (B6.hALOX12 mice; time 10): 585 and 462 (2×) and 543 and 359 and 482
GTT blood glucose (Fig 1I) (B6.hALOX12 mice; time 20): 636 and 668 and 606 and 558 and 520 and 577
GTT blood glucose (Fig 1I) (B6.hALOX12 mice; time 30): 577 and 520 and 660 and 662 and 560 and 646
GTT blood glucose (Fig 1I) (B6.hALOX12 mice; time 60): 488 and 436 and 530 and 581 and 420 and 589
GTT blood glucose (Fig 1I) (B6.hALOX12 mice; time 90): 345 and 329 and 461 and 457 and 365 and 408
GTT blood glucose (Fig 1I) (B6.hALOX12 mice; time 120): 239 and 265 and 375 and 360 and 216 and 283
Magnitude of changes of IFN pathway genes vs vehicle in M1-like BMDMs ([3]; 10 μM, P < 0.05 by t test): augmented significantly
Adar expression (heat map value) [3, 8]: 1.762 and 1.682 and 1.654 and 1.2
Arrdc4 expression (heat map value) [3, 8]: 1.769 and 1.684 and 1.6721 and 1.333
Ddx3x expression (heat map value) [3, 8]: 0.9319 and 0.8926 and 0.8886 and 0.8518
Dhx58 expression (heat map value) [3, 8]: 2.321 and 1.936 and 1.912 and 1.006
Gigyf2 expression (heat map value) [3, 8]: 0.9359 and 0.7566 and 0.751 and 0.4484
Kat5 expression (heat map value) [3, 8]: 0.9038 and 0.7157 and 0.4242 (2×)
Lrrfip2 expression (heat map value) [3, 8]: 1.898 and 1.808 and 1.658 and 1.413
Mark4 expression (heat map value) [3, 8]: 1.966 and 1.936 and 1.657 and 1.006
Mmp12 expression (heat map value) [3, 8]: 0.8105 and 0.4921 (3×)
Ninj1 expression (heat map value) [3, 8]: 1.769 and 1.701 and 1.685 and 1.401
Nlrp3 expression (heat map value) [3, 8]: 2.077 and 1.964 and 1.718 and 1.337
Nono expression (heat map value) [3, 8]: 1.2 and 1.151 and 1.126 and 1.119
Oas1e expression (heat map value) [3, 8]: 2.321 and 1.949 and 1.675 and 1.657
Pou2f2 expression (heat map value) [3, 8]: 1.6038 and 1.537 and 1.347 and 1.324
Riok3 expression (heat map value) [3, 8]: 1.411 and 1.279 and 1.172 and 1.109
Srebf1 expression (heat map value) [3, 8]: 0.9499 and 0.826 and 0.6628 and 0.3958
Tank expression (heat map value) [3, 8]: 2.305 and 1.708 and 1.675 and 0.8815
Tlr6 expression (heat map value) [3, 8]: 2.235 and 2.002 and 1.489 and 1.453
Tmem126a expression (heat map value) [3, 8]: 0.7845 and 0.7743 and 0.7659 and 0.465
Tomm70a expression (heat map value) [3, 8]: 1.572 and 1.428 and 1.219 and 1.127
Ttll12 expression (heat map value) [3, 8]: 2.1636 and 1.773 and 1.7 and 1.671
Ube2k expression (heat map value) [3, 8]: 1.475 and 1.413 and 1.263 and 1.205
AUC%extrap_obs ([4]; C57BL/6J mice, 30 mg/kg p.o., mean ± SD): 0.342 ± 0.133%
AUC(0-inf) [4, 9]: 15100 ng·h/mL
AUC(0-t) [4, 9]: 15000 ng·h/mL
Cmax [4, 9]: 13300 ng/mL
MRT inf [4, 9]: 2.57 ± 0.38 h
half-life [4, 9]: 3.24 ± 0.07 h
